What was measured:
[1] = tested on: esterase from hog's liver; experiment: spot test: hydrolysis of substrate on buffer-oxidation agent paper, visual colour evaluation; type: biochemical; set-up: key: +: coloration; ++: strong coloration; +++: strong and rapid coloration; settings: potassium ferricyanide, enzyme about 1000 U/ml., ambient temperature; for Coloration pH 6: pH 6.0 fleece; for Coloration pH 9: pH 9.0 fleece
Method: (§1) In a spot test, there was investigated the hydrolysis of various compounds by appropriate hydrolases (aryl sulphatase, acidic and alkaline phosphatase, esterase, acetyl-β-O-glucosamidase and lipase). The base thereby liberated was simultaneously oxidized by potassium ferricyanide to the colored material and the color formation evaluated visually.
(§2) The rate of hydrolysis was evaluated visually at pH 6.0, as well as at pH 9.0, by spotting a hydrolase solution on to a substrate-buffer-oxidation agent-paper. The enzyme concentration was about 1000 U/ml. and the test temperature was ambient temperature. The non-enzymatic hydrolysis with a 0.9% aqueous sodium chloride solution as sample was evaluated for the purpose of comparison.
(§3) Impregnation solution: 100 mmole/liter potassium dihydrogen phosphate 10 mmole/liter potassium ferricyanide 2% Pluronic® F 68
(§4) The pH value was adjusted to 6.0 with a 2N aqueous solution of potassium hydroxide.
(§5) Impregnation solution: 100 mmole/liter glycine 10 mmole/liter potassium ferricyanide 2% Pluronic® 68
(§6) The pH value was adjusted to 9.0 with a 2N aqueous solution of sodium hydroxide.
(§7) Impregnation: An 8×30 cm. paper fleece (Whatman 3M) was impregnated with 8 ml. of impregnation solution and dried for 30 minutes at 50° C. in a drying cabinet.
(§8) The so impregnated buffer-oxidation agent papers were cut up into 8×2 cm. strips and post-impregnated with substrate solution. Substrate solution/impregnation solution: 5 mg. of the substrate to be tested (or the free base) were dissolved or suspended in 1 ml. methanol and, in each case, 10 μl. thereof applied to the buffer-oxidation agent papers. The solvent was evaporated with a blow drier. On to this substrate oxidation agent surface were then dosed on the hydrolase solutions and evaluated. […]

[2] = tested on: alkaline phosphatase; experiment: as above; type: biochemical; set-up: key: +: coloration; ++: strong coloration; +++: strong and rapid coloration; settings: potassium ferricyanide, enzyme about 1000 U/ml., ambient temperature; for Coloration pH 6: pH 6.0 fleece; for Coloration pH 9: pH 9.0 fleece
Method: as §1, §2, §3, §4, §5, §6, §7, §8

[3] = molecular target: T1, β-galactosidase labelled immune complex (Escherichia coli, UniProt P00722); experiment: thyroxine (T4) test strip: colour formation from galactosidase substrate; type: biochemical; settings: T4-containing sample, sodium perborate/horseradish peroxidase, after 10 minutes
Method: Fleece 14 is impregnated with a conjugate of β-galactosidase with an antibody against T4.
A piece of paper (Schleicher & Schull 3512) was activated with cyanogen bromide and T4 succinimide ester bound thereon.
d) Fleece 13 serves for the sample application.
For the production of the test carrier 11, the fleece are fixed to a base film 12 as shown in FIG. 2 of the accompanying drawings.
The sample was prepared analogously to Example 15.
The test strip 11 was placed with the end 17 in the solution. The T4-containing sample penetrates into the fleece 13. From there, it flows on into fleece 14 from where it dissolves off the β-galactosidase conjugate. […] The solution which now, besides this immune complex, also contains an excess of the β-galactosidase conjugate, penetrates into fleece 15. This excess is there bound to the paper via bound T4.
The solution which still contains the immune complex penetrates into fleece 16. The process according to the invention for the detection of the β-galactosidase labelled immune complex, which represents the substance with hydrolase activity, there takes place. The more of this complex and thus also the more of T4 was present in the solution, the more strongly has the fleece 16 become red colored after 10 minutes. In the case of the absence of T4, the fleece 16 remains white.

[4] = molecular target: T1, β-galactosidase labelled immune complex; experiment: hCG test carrier: colour formation from galactosidase substrate; settings: hCG-containing sample, sodium perborate/horseradish peroxidase, pH 7, within 10 minutes
[5] = tested on: N-acetyl-β-D-glucosaminidase; experiment: spot test: hydrolysis of substrate on buffer-oxidation agent paper, visual colour evaluation; type: biochemical; set-up: key to Coloration pH 6 / Coloration pH 9: +: coloration; ++: strong coloration; +++: strong and rapid coloration
Method: as §1, §2, §3, §4, §5, §6, §7, §8

[6] = tested on: lipase; experiment: as above; type: biochemical; set-up: key: +: coloration; ++: strong coloration; +++: strong and rapid coloration; settings: potassium ferricyanide, enzyme about 1000 U/ml., ambient temperature
Method: as §1, §2, §3, §4, §5, §6, §7, §8

T1 sequence (P00722 2-1024, one chain of several): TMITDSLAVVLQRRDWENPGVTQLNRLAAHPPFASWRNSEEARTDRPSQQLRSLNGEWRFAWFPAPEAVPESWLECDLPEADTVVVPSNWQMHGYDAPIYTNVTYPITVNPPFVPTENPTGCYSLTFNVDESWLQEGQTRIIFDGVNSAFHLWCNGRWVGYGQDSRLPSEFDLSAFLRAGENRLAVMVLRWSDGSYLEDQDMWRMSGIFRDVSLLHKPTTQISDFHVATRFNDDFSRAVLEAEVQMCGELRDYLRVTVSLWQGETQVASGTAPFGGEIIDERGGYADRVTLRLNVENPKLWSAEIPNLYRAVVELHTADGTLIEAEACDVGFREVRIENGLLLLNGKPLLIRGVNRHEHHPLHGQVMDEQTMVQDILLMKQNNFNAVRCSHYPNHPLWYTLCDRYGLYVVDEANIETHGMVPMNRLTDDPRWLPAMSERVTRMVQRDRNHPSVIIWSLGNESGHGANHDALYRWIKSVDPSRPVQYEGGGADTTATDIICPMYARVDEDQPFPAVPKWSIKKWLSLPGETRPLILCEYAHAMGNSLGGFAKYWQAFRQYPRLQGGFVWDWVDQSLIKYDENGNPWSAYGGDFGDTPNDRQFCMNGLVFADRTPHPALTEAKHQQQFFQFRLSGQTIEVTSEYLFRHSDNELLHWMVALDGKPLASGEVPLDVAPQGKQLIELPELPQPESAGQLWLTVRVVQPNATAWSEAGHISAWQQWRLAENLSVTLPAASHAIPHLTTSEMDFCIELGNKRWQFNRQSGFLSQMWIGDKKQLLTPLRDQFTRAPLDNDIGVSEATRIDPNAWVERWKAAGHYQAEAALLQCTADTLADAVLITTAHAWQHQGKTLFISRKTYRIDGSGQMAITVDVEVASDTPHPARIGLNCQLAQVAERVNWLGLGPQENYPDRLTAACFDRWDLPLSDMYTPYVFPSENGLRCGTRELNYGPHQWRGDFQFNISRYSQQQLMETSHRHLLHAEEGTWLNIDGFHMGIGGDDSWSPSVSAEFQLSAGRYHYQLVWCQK

| Compound | Coloration pH 6 [1] | Coloration pH 9 [1] | Coloration pH 9 [2] | also measured |
| --- | --- | --- | --- | --- |
| CCCCCCCCCCCC(=O)Oc1ccc(-c2nc(-c3ccc(N(C)C)cc3)c(C)[nH]2)cc1OC [Example 5, 4-[4-(4-Dimethylaminophenyl)-5-methyl-1H-imidazol-2-yl]-2-methoxyphenyl dodecanoate] | + | ++ | – | – |
| COc1cc(-c2nc(-c3ccc(N(C)C)cc3)c(-c3ccc(N(C)C)cc3)[nH]2)cc(OC)c1OP(=O)(O)O [Example 6c, 4-[4,5-Bis-(4-dimethylaminophenyl)-1H-imidazol-2-yl]-2,6-dimethoxyphenyl dihydrogen phosphate] | – | – | ++ | Coloration pH 6 [2]: + |
| COc1cc(-c2nc(-c3ccc(N(C)C)cc3)c(C)o2)ccc1OC(C)=O [Example 4a, 4-[4-(4-Dimethylaminophenyl)-5-methyloxazol-2-yl]-2-methoxyphenyl acetate] | +++ | +++ | – | – |
| CCCCCCCC(=O)Oc1ccc(-c2nc(-c3ccc(N(C)C)cc3)c(C)[nH]2)cc1OC [Example 5d, 4-[4-(4-Dimethylaminophenyl)-5-methyl-1H-imidazol-2yl]-2-methoxyphenyl octanoate] | ++ | +++ | – | – |
| COc1ccc(-c2nc(-c3ccc(O[C@@H]4O[C@H](CO)[C@H](O)[C@H](O)[C@H]4O)c(OC)c3)[nH]c2-c2ccc(OC)cc2)cc1 [Example 12, 2-(4-β-D-Galactopyranosyloxy-3-methoxyphenyl)-4,5-bis-(4-methoxyphenyl)-I,3-imidazole] | – | – | – | colour of fleece 16 [3]: red colored; colour formed in fleece 6 [4]: red color |
| COc1cc(-c2nc(-c3ccc(N(C)C)cc3)c(C)[nH]2)cc(OC)c1OP(=O)(O)O [Example 6a, 4-[4-(4-Dimethylaminophenyl)-5-methyl-1H-imidazol-2-yl]-2,6-dimethoxyphenyldihydrogen phosphate] | – | – | +++ | – |
| COc1cc(-c2nc(-c3ccc(N(C)C)cc3)c(C)[nH]2)ccc1O[C@@H]1O[C@H](CO)[C@@H](O)[C@H](O)[C@H]1NC(C)=O [Example 8, {4-[4-(4-Dimethylaminophenyl)-5-methyl-1H-imidazol-2-yl]-2-methoxyphenyl}-2-acetamido-2-deoxy-ε-D-glucopyranoside] | – | – | – | suitability as substrate (strong blue coloration) ([5]; at pH 6 and pH 9): very good substrate; Coloration pH 6 ([5]; pH 6.0 fleece, potassium ferricyanide, enzyme about 1000 U/ml., ambient temperature, visual): +++; Coloration pH 9 ([5]; pH 9.0 fleece, potassium ferricyanide, enzyme about 1000 U/ml., ambient temperature, visual): +++ |
| CCCC(=O)Oc1ccc(-c2nc(-c3ccc(N(C)C)cc3)c(C)[nH]2)cc1OC [Example 5b, 4-[4-(4-Dimethylaminophenyl)-5-methyl-1H-imidazol-2-yl]-2-methoxyphenyl butanoate] | ++ | +++ | – | Coloration pH 6 ([6]; pH 6.0 fleece): ++; Coloration pH 9 ([6]; pH 9.0 fleece): +++ |
| COc1cc(-c2nc(-c3ccc(N(C)C)cc3)c(C)s2)cc(OC)c1OC(C)=O [Example 4b, 4-[4-(4-Dimethylaminophenyl)-5-methylthiazol-2-yl]-2,6-dimethoxyphenyl acetate] | + | ++ | – | – |
| COc1cc(-c2nc(-c3ccc(N(C)C)cc3)c(-c3ccc(N(C)C)cc3)o2)cc(OC)c1OP(=O)(O)O [Example 7a, 4-[4,5-Bis-(4-dimethylaminophenyl)-oxazol-2-yl]-2,6-dimethoxyphenyl dihydrogen phosphate] | – | – | +++ | Coloration pH 6 [2]: ++ |
| COc1cc(-c2nc(-c3ccc(N(C)C)cc3)c(C)[nH]2)ccc1OC(C)=O [Example 4, 4-[4-(4-Dimethylaminophenyl)-5-methyl-1H-imidazol-2-yl]-2-methoxyphenyl acetate] | ++ | +++ | – | – |
| COc1cc(-c2nc(-c3ccc(N(C)C)cc3)c(C)o2)ccc1OP(=O)(O)O [Example 7, 4-[4-(4-Dimethylaminophenyl)-5-methyl-oxazol-2-yl]-2-methoxyphenyl dihydrogen phosphate] | – | – | ++ | Coloration pH 6 [2]: + |
| COc1cc(-c2nc(-c3ccc(N(C)C)cc3)c(C)[nH]2)ccc1OP(=O)(O)O [Example 6, 4-[4-(4-Dimethylaminophenyl)-5-methyl-1H-imidazol-2-yl]-2-methoxyphenyl dihydrogen phosphate] | – | – | ++ | – |
| COc1cc(-c2nc(-c3ccc(N(C)C)cc3)c(-c3ccccc3)[nH]2)cc(OC)c1OP(=O)(O)O [Example 6b, 4-[4-(4-Dimethylaminophenyl)-5-phenyl-1H-imidazol-2-yl]-2,6-dimethoxyphenyldihydrogen phosphate] | – | – | +++ | Coloration pH 6 [2]: ++ |
| CCC(=O)Oc1ccc(-c2nc(-c3ccc(N(C)C)cc3)c(C)[nH]2)cc1OC [Example 5a, 4-[4-(4-Dimethylaminophenyl)-5-methyl-1H-imidazol-2-yl]-2-methoxyphenyl propanoate] | + | ++ | – | – |
| COc1cc(-c2nc(-c3ccc(N(C)C)cc3)c(-c3ccc(N(C)C)cc3)[nH]2)cc(OC)c1OC(C)=O [Example 4d, 4-[4,5-Bis-(4-dimethylaminophenyl)-1H-imidazol-2-yl]-2,6-dimethoxyphenyl acetate] | ++ | ++ | – | – |
| CCCCC(=O)Oc1ccc(-c2nc(-c3ccc(N(C)C)cc3)c(C)[nH]2)cc1OC [Example 5c, 4-[4-(4-Dimethylaminophenyl)-5-methyl-1H-imidazol-2-yl]-2-methoxyphenyl pentanoate] | ++ | ++ | – | – |

— patent US5292669A, “Agents for the detection of substrates with hydrolase activity” (Boehringer Mannheim GmbH, priority 1992, dated 1994)
